Where a name gives a salt, the structure may show the parent alone.
Target: T1, mGluR5 receptor (Sus scrofa, UniProt I3LUI7)
T1 construct: 450 μg of protein from brain homogenate with 5 nM ^3[H]-MPEP; from tissue; host or cells: pig brain halves without medulla, cerebellum and pons
Experiment: [3H]-MPEP mGluR5 receptor binding assay (pig brain homogenate)
Settings: 5 nM [3H]-MPEP; for inhibition at 10 µM / % Inhibition of mGluR5 Receptor (pig) [^3H]-MPEP Bond at 10 μM: 10 μM compound; for inhibition at 10 µM: read-out: % Inhibition of mGluR5 Receptor (pig) [^3H]-MPEP Bond at 10 μM; for IC50: read-out: IC50 mGluR5 Receptor (pig) [^3H]-MPEP Bond
How it was run: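 Compounds at 10 μM competed with 5 nM [3H]-MPEP for binding to pig brain membranes (450 μg protein) for 60 min at room temperature in pH 8.0 Hepes buffer. Bound radioactivity was collected on glass-fibre filters and read by β-counting, with 10 μM unlabelled MPEP giving non-specific binding.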

T1 sequence (I3LUI7 19-1212): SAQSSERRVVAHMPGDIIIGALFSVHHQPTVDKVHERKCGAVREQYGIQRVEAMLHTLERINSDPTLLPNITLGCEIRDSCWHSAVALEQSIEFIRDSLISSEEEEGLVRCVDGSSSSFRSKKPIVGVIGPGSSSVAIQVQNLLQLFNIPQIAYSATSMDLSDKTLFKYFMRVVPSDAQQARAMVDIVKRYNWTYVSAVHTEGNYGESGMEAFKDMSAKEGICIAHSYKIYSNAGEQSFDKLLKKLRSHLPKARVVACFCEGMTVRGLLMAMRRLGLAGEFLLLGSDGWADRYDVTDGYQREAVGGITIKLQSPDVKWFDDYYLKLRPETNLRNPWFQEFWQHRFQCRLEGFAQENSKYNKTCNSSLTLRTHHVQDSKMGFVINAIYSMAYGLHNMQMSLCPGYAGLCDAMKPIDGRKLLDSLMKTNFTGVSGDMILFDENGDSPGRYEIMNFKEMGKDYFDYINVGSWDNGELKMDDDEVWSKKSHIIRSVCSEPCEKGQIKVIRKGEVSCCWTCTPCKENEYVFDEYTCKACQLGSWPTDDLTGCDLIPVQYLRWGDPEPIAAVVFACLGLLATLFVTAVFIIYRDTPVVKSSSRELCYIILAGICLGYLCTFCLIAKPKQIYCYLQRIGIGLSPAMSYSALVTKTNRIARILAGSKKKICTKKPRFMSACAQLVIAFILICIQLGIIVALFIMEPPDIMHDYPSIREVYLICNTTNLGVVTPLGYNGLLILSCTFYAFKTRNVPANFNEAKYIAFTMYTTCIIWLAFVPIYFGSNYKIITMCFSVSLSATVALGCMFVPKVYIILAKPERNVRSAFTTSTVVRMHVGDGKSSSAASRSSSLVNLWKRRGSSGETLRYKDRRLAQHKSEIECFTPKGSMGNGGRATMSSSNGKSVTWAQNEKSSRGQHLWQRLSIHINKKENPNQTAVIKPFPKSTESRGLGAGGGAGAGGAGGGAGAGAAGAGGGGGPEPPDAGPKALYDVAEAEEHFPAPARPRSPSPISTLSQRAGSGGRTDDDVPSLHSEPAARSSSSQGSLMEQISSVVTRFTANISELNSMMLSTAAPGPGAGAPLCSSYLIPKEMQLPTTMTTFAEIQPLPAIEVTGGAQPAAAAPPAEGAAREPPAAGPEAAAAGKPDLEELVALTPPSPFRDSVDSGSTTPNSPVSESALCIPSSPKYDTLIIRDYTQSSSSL

| SMILES | inhibition at 10 µM [%] | further results |
| --- | --- | --- |
| Cc1ccc(C(=O)N(Cc2cccc(-c3ccc4ncnc(N5CCCC5)c4c3)c2)C2CC2)cc1 [Example 134, N-cyclopropyl-4-methyl-N-[3-(4-pyrrolidin-1-yl-quinazolin-6-yl)-benzyl]-benzamide] | 58 | – |
| CCCN(Cc1cccc(-c2ccc3ncnc(Nc4ccccc4)c3c2)c1)C(=O)c1ccc(OC)cc1 [Example 94, 4-methoxy-N-[3-(4-phenylamino-quinazolin-6-yl)-benzyl]-N-propyl-benzamide] | 75 | – |
| CC(=O)N(Cc1cccc(-c2ccc3ncnc(NC4CC4)c3c2)c1)C1CCC1 [Example 893, N-cyclobutyl-N-(3-(4-(cyclopropylamino)quinazolin-6-yl)benzyl)acetamide] | – | IC50: 3210 nM |
| Cc1nc(NC2CC2)c2cc(-c3ccc(F)c(CN(C(=O)c4cccc(F)c4)C4CC4)c3)ccc2n1 [Example 566, N-cyclopropyl-N-(5-(4-(cyclopropylamino)-2-methylquinazolin-6-yl)-2-fluorobenzyl)-3-fluorobenzamide] | 61 | – |
| COc1ccc(C(=O)N(Cc2cccc(-c3cc4c(NC5CC5)ncnc4cc3C)c2)C2CC2)cc1OC [Example 722, N-cyclopropyl-N-(3-(4-(cyclopropylamino)-7-methylquinazolin-6-yl)benzyl)-3,4-dimethoxybenzamide] | 72 | – |
| COC(=O)C(=O)N(Cc1cccc(-c2ccc3ncnc(NC4CC4)c3c2)c1)C1CC1 [Example 238, N-cyclopropyl-N-[3-(4-cyclopropylamino-quinazolin-6-yl)-benzyl]-methyl oxalate] | – | IC50: 500 nM |
| c1ccc(N(Cc2cccc(-c3ccc4ncnc(NC5CC5)c4c3)c2)C2CC2)nc1 [Example 888, N-cyclopropyl-6-(3-((cyclopropyl(pyridin-2-yl)amino)methyl)phenyl)quinazoline-4-amine] | – | IC50: 2650 nM |
| O=C(c1ccccn1)N(Cc1cccc(-c2ccc3ncnc(NC4CC4)c3c2)c1)C1CC1 [Example 170, pyridine-2-carboxylic acid cyclopropyl-[3-(4-cyclopropylamino-quinazolin-6-yl)-benzyl]-amide] | 78 | – |
| Cc1cc(C(=O)N(Cc2cccc(-c3ccc4nc(C)nc(NC5CC5)c4c3)c2)C2CC2)n(C)n1 [Example 485, N-cyclopropyl-N-(3-(4-(cyclopropylamino)-2-methylquinazolin-6-yl)benzyl)-1,3-dimethyl-1H-pyrazole-5-carboxamide] | 32 | – |
| O=C1C2CCCCC2C(=O)N1Cc1cccc(-c2ccc3ncnc(NC4CC4)c3c2)c1 (stereo not drawn) [Example 242, 2-[3-(4-cyclopropylamino-quinazolin-6-yl)-benzyl]-hexahydro-isoindole-1,3-dione hydrochloride] | – | IC50: 3080 nM |
| O=C(COc1ccccc1)N(Cc1cccc(-c2ccc3ncnc(N4CCCC4)c3c2)c1)C1CC1 [Example 145, N-cyclopropyl-2-phenoxy-N-[3-(4-pyrrolidin-1-yl-quinazolin-6-yl)-benzyl]-acetamide] | 53 | – |
| CC(C)(C)C(=O)N(Cc1cccc(-c2ccc3ncnc(NC4CC4)c3c2)c1)C1CC1 [Example 266, N-cyclopropyl-N-(3-(4-(cyclopropylamino)quinazolin-6-yl)benzyl)pivalamide] | – | IC50: 1270 nM |
| Cc1nc(NC2CC2)c2cc(-c3ccc(F)c(CN(C(=O)Cc4ccccc4)C4CC4)c3)ccc2n1 [Example 644, N-cyclopropyl-N-(5-(4-(cyclopropylamino)-2-methylquinazolin-6-yl)-2-fluorobenzyl)-2-phenylacetamide] | 85 | – |
| COCCN(Cc1cccc(-c2ccc3ncnc(NC4CC4)c3c2)c1)C(C)=O [Example 213, N-(3-(4-(cyclopropylamino)quinazolin-6-yl)benzyl)-N-(2-methoxyethyl)acetamide] | 32 | – |
| Cc1cc2ncnc(NC3CC3)c2cc1-c1cccc(CN(C(=O)c2ccccn2)C2CC2)c1 [Example 699, N-cyclopropyl-N-(3-(4-(cyclopropylamino)-7-methylquinazolin-6-yl)benzyl)picolinamide] | 90 | – |
| O=C(c1cccnc1)N(Cc1cc(-c2ccc3ncnc(NC4CC4)c3c2)ccc1F)C1CC1 [Example 367, N-cyclopropyl-N-(5-(4-(cyclopropylamino)quinazolin-6-yl)-2-fluorobenzyl)nicotinamide] | 94 | – |
| CCCCC(=O)N(C)Cc1cc(-c2ccc3ncnc(NCc4ccccc4)c3c2)ccc1F [Example 549, N-(5-(4-(benzylamino)quinazolin-6-yl)-2-fluorobenzyl)-N-methyl pentanamide] | – | % Inhibition of mGluR5 Receptor (pig) [^3H]-MPEP Bond at 10 μM: 32% |
| CCCN(Cc1cccc(-c2ccc3ncnc(Nc4ccccc4)c3c2)c1)C(=O)c1ccc(O)nc1 [Example 111, 6-hydroxy-N-[3-(4-phenylamino-quinazolin-6-yl)-benzyl]-N-propyl-nicotinamide] | 46 | – |
| CCCCC(=O)N(Cc1cccc(-c2ccc3nc(C)nc(NC4CC4)c3c2)c1)C1CC1 [Example 519, N-cyclopropyl-N-(3-(4-(cyclopropylamino)-2-methylquinazolin-6-yl)benzyl)pentanamide] | 76 | – |
| CCCCC(=O)N(Cc1cccc(-c2cc3c(NC4CC4)ncnc3cc2C)c1)C1CC1 [Example 715, N-cyclopropyl-N-(3-(4-(cyclopropylamino)-7-methylquinazolin-6-yl)benzyl)pentanamide] | 90 | – |
| CCCN(Cc1cccc(-c2ccc3ncnc(NC4CC4)c3c2)c1)C(C)=O [Example 887, N-(3-(4-(cyclopropylamino)quinazolin-6-yl)benzyl)-N-propylacetamide hydrochloride] | – | IC50: 3100 nM |
| COc1ccc(-c2ccc3ncnc(NC4CC4)c3c2)cc1CN(C(C)=O)C1CC1 [Example 259, N-cyclopropyl-N-[5-(4-cyclopropylamino-quinazolin-6-yl)-2-methoxy-benzyl]-acetamide] | – | IC50: 290 nM |
| CN(Cc1cccc(-c2ccc3ncnc(NC4CC4)c3c2)c1)C1CC1 [Example 891, N-cyclopropyl-6-(3-((cyclopropyl(methyl)amino)methyl)phenyl)quinazoline-4-amine] | – | IC50: 5600 nM |
| O=S(=O)(c1cccc(C(F)(F)F)c1)N(Cc1cc(-c2ccc3ncnc(NC4CC4)c3c2)ccc1F)C1CC1 [Example 375, N-cyclopropyl-N-(5-(4-(cyclopropylamino)quinazolin-6-yl)-2-fluorobenzyl)-3-(trifluoromethyl)benzole sulfonamide] | – | % Inhibition of mGluR5 Receptor (pig) [^3H]-MPEP Bond at 10 μM: 34% |
| O=C(c1cc2ccccc2cn1)N(Cc1cccc(-c2ccc3ncnc(NC4CC4)c3c2)c1)C1CC1 [Example 159, isoquinoline-3-carboxylic acid cyclopropyl-[3-(4-cyclopropylamino-quinazolin-6-yl)-benzyl]-amide] | 85 | – |
| CS(=O)(=O)N(Cc1cc(-c2ccc3ncnc(NC4CC4)c3c2)ccc1Cl)C1CC1 [Example 764, N-(2-chloro-5-(4-(cyclopropylamino)quinazolin-6-yl)benzyl)-N-cyclopropyl methane sulfonamide] | – | % Inhibition of mGluR5 Receptor (pig) [^3H]-MPEP Bond at 10 μM: 87% |
| COC(=O)N(Cc1cccc(-c2ccc3ncnc(NC4CC4)c3c2)c1)C1CC1 [Example 898, methyl cyclopropyl(3-(4-(cyclopropylamino)quinazolin-6-yl)benzyl)carbamate] | – | IC50: 90 nM |
| CC(C)(C)Nc1ncnc2ccc(-c3ccc(F)c(CN(C(=O)C(C)(C)C)C4CC4)c3)cc12 [Example 850, N-(5-(4-(tert-butylamino)quinazolin-6-yl)-2-fluorobenzyl)-N-cyclopropyl pivalamide] | – | % Inhibition of mGluR5 Receptor (pig) [^3H]-MPEP Bond at 10 μM: 83% |
| Cc1ccc(C(=O)N(Cc2cccc(-c3ccc4ncnc(N5CCOCC5)c4c3)c2)CC(C)C)cc1 [Example 22, N-isobutyl-4-methyl-N-[3-(4-morpholin-4-yl-quinazolin-6-yl)-benzyl]-benzamide] | 32 | – |
| CC(C)(C)C(=O)N(Cc1cccc(-c2cc(F)c3ncnc(NC4CC4)c3c2)c1)C1CC1 [Example 724, N-cyclopropyl-N-(3-(4-(cyclopropylamino)-8-fluoroquinazolin-6-yl)benzyl)pivalamide] | 86 | – |

Second part, led by results:

| inhibition at 10 µM [%] | SMILES | further results |
| --- | --- | --- |
| 82 | COCC(=O)N(Cc1cc(-c2ccc3ncnc(NC(C)(C)C)c3c2)ccc1F)C1CC1 [Example 846, N-(5-(4-(tert-butylamino)quinazolin-6-yl)-2-fluorobenzyl)-N-cyclopropyl-2-methoxyacetamide] | – |
| 65 | Cc1cccc(CNc2ncnc3ccc(-c4cccc(CN(C(=O)CN(C)C)C5CC5)c4)cc23)c1 [Example 726, N-cyclopropyl-2-(dimethylamino)-N-(3-(4-(3-methylbenzylamino)quinazolin-6-yl)benzyl)acetamide] | – |
| 69 | O=S(=O)(c1cccc2cccnc12)N(Cc1cc(-c2ccc3ncnc(NC4CC4)c3c2)ccc1Cl)C1CC1 [Example 742, N-(2-chloro-5-(4-(cyclopropylamino)quinazolin-6-yl)benzyl)-N-cyclopropylquinoline-8-sulfonamide] | – |
| 91 | O=C(c1ccncc1)N(Cc1cccc(-c2cc(F)c3ncnc(NC4CC4)c3c2)c1)C1CC1 [Example 736, N-cyclopropyl-N-(3-(4-(cyclopropylamino)-8-fluoroquinazolin-6-yl)benzyl)isonicotinamide] | – |
| 90 | COCC(=O)N(Cc1cccc(-c2cc(F)c3ncnc(NC4CC4)c3c2)c1)C1CC1 [Example 744, N-cyclopropyl-N-(3-(4-(cyclopropylamino)-8-fluoroquinazolin-6-yl)benzyl)-2-methoxyacetamide] | – |
| 87 | CC(=O)N(Cc1nc(-c2ccc3ncnc(NC4CC4)c3c2)cs1)C1CC1 [Example 903, N-cyclopropyl-N-((4-(4-(cyclopropylamino)quinazolin-6-yl)thiazole-2-yl)methyl)acetamide] | – |

Source: patent US20090069320A1, “Substituted 4-Amino-Quinazoline Compounds with Metabotropic Glutamate Receptor Regulating Activity and Uses Thereof” (Gruenenthal GmbH, priority 2006, published 2009)
